Data from patent US11590139B2, “Substituted aminopurine compounds, compositions thereof, and methods of treatment therewith” (Signal Pharmaceuticals, LLC, priority 2014, dated 2023).

Test system: Lox-IMVI melanoma cell line
Assay: Lox-IMVI anti-proliferative assay (growth inhibition, Cell Titer-Glo)
Format: cell-based, human
Conditions: Homo sapiens; Lox-IMVI anti-proliferative assay, IC50 activity level; read-out: Activity
How it was run: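 First, compound was dispensed as a 10-point 3-fold series (0.5 nM–10 μM, duplicate). Then cells in RPMI + 10% FBS were added and grown 72 h at 37 °C with 0.2% DMSO. Finally, ATP luminescence was read and IC50 calculated versus DMSO control.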

C[C@]1(C(N)=O)CC[C@@H](n2c(Nc3c(F)cc(C#N)cc3Cl)nc3cnc(NC4CCOCC4)nc32)CC1 [Example 525, (1s,4s)-4-(8-(2-chloro-4-cyano-6-fluorophenylamino)-2-(tetrahydro-2H-pyran-4-ylamino)-9H-purin-9-yl)-1-methylcyclohexanecarboxamide] and C[C@]1(C(N)=O)CC[C@@H](n2c(Nc3c(Cl)cc(C#N)cc3Cl)nc3cnc(NC4CCOCC4)nc32)CC1 [Example 535, (1s,4s)-4-(8-(2,6-dichloro-4-cyanophenylamino)-2-(tetrahydro-2H-pyran-4-ylamino)-9H-purin-9-yl)-1-methylcyclohexanecarboxamide] cannot be ordered by IC50: less than 250 nM for the first, less than 250 nM for the second.

C[C@]1(C(N)=O)CC[C@@H](n2c(Nc3c(Cl)cc(F)cc3Cl)nc3cnc(NC4CCC(F)(F)CC4)nc32)CC1 [Example 526, (1s,4s)-4-(8-(2,6-dichloro-4-fluorophenylamino)-2-(4,4-difluorocyclohexylamino)-9H-purin-9-yl)-1-methylcyclohexanecarboxamide] and C[C@]1(C(N)=O)CC[C@@H](n2c(Nc3c(F)cc(F)cc3Cl)nc3cnc(NC4CCC(F)(F)CC4)nc32)CC1 [Example 527, (1s,4s)-4-(8-(2-chloro-4,6-difluorophenylamino)-2-(4,4-difluorocyclohexylamino)-9H-purin-9-yl)-1-methylcyclohexanecarboxamide] cannot be ordered by IC50: less than 250 nM for the first, less than 250 nM for the second.

C[C@]1(C(N)=O)CC[C@@H](n2c(Nc3c(F)cc(Cl)cc3Cl)nc3cnc(NC4CCC(F)(F)CC4)nc32)CC1 [Example 528, (1s,4s)-4-(8-(2,4-dichloro-6-fluorophenylamino)-2-(4,4-difluorocyclohexylamino)-9H-purin-9-yl)-1-methylcyclohexanecarboxamide] and C[C@]1(C(N)=O)CC[C@@H](n2c(Nc3c(Cl)cc(C#N)cc3Cl)nc3cnc(NC4CCC(F)(F)CC4)nc32)CC1 [Example 534, (1s,4s)-4-(8-(2,6-dichloro-4-cyanophenylamino)-2-(4,4-difluorocyclohexylamino)-9H-purin-9-yl)-1-methylcyclohexanecarboxamide] cannot be ordered by IC50: less than 250 nM for the first, less than 250 nM for the second.

Compared with N#Cc1cc(F)c(Nc2nc3cnc(N[C@@H]4CCOC4)nc3n2[C@H]2CC[C@@H](C(N)=O)CC2)c(F)c1 [Example 529, (1S,4s)-4-(8-(4-cyano-2,6-difluorophenylamino)-2-((R)-tetrahydrofuran-3-ylamino)-9H-purin-9-yl)cyclohexanecarboxamide], NC(=O)[C@H]1CC[C@@H](n2c(Nc3c(F)cc(F)cc3F)nc3cnc(N[C@@H]4CCOC4)nc32)CC1 [Example 530, (1S,4s)-4-(2-((R)-tetrahydrofuran-3-ylamino)-8-(2,4,6-trifluorophenylamino)-9H-purin-9-yl)cyclohexanecarboxamide] is lower in IC50: greater than 1000 nM for the first, 500 to 1000 nM for the second.

Compared with CC(CN1CCOCC1)Nc1ncc2nc(Nc3c(Cl)cc(Cl)cc3Cl)n([C@H]3CC[C@@H](C(N)=O)CC3)c2n1 (some centres unmarked) [Example 531, (1s,4s)-4-(2-(1-morpholinopropan-2-ylamino)-8-(2,4,6-trichlorophenylamino)-9H-purin-9-yl)cyclohexanecarboxamide], NC(=O)[C@H]1CC[C@@H](n2c(Nc3c(Cl)cc(Cl)cc3Cl)nc3cnc(NC4CCCOCC4)nc32)CC1 (some centres unmarked) [Example 539, (1s,4s)-4-(2-(oxepan-4-ylamino)-8-(2,4,6-trichlorophenylamino)-9H-purin-9-yl)cyclohexanecarboxamide] is lower in IC50: greater than 1000 nM for the first, less than 250 nM for the second.

First: C[C@@H]1COCC[C@H]1Nc1ncc2nc(Nc3c(F)cc(Cl)cc3F)n([C@H]3CC[C@@H](C(N)=O)CC3)c2n1 [Example 532, (1S,4s)-4-(8-(4-chloro-2,6-difluorophenylamino)-2-((3S,4R)-3-methyltetrahydro-2H-pyran-4-ylamino)-9H-purin-9-yl)cyclohexanecarboxamide]
Second: C[C@@H]1COCC[C@H]1Nc1ncc2nc(Nc3c(F)cc(F)cc3F)n([C@H]3CC[C@@H](C(N)=O)CC3)c2n1 [Example 533, (1S,4s)-4-(2-((3S,4R)-3-methyltetrahydro-2H-pyran-4-ylamino)-8-(2,4,6-trifluorophenylamino)-9H-purin-9-yl)cyclohexanecarboxamide]
The IC50 of the first is higher: 250 to 500 nM for the first, less than 250 nM for the second.

First: NC(=O)[C@H]1CC[C@@H](n2c(Nc3c(F)cc(F)cc3F)nc3cnc(NC4CCCOCC4)nc32)CC1 (some centres unmarked) [Example 536, (1s,4s)-4-(2-(oxepan-4-ylamino)-8-(2,4,6-trifluorophenylamino)-9H-purin-9-yl)cyclohexanecarboxamide]
Second: NC(=O)[C@H]1CC[C@@H](n2c(Nc3c(F)cc(F)cc3Cl)nc3cnc(NC4CCCOCC4)nc32)CC1 (some centres unmarked) [Example 538, (1s,4s)-4-(8-(2-chloro-4,6-difluorophenylamino)-2-(oxepan-4-ylamino)-9H-purin-9-yl)cyclohexanecarboxamide]
The IC50 of the first is higher: 500 to 1000 nM for the first, 250 to 500 nM for the second.

Compared with NC(=O)[C@H]1CC[C@@H](n2c(Nc3c(F)cc(Cl)cc3Cl)nc3cnc(NC4CCCOCC4)nc32)CC1 (some centres unmarked) [Example 537, (1s,4s)-4-(8-(2,4-dichloro-6-fluorophenylamino)-2-(oxepan-4-ylamino)-9H-purin-9-yl)cyclohexanecarboxamide], NC(=O)[C@H]1CC[C@@H](n2c(Nc3c(F)cc(Cl)cc3F)nc3cnc(NC4CCCOCC4)nc32)CC1 (some centres unmarked) [Example 540, (1s,4s)-4-(8-(4-chloro-2,6-difluorophenylamino)-2-(oxepan-4-ylamino)-9H-purin-9-yl)cyclohexanecarboxamide] is higher in IC50: less than 250 nM for the first, 250 to 500 nM for the second. The first is the more potent here.

Compared with NC(=O)[C@H]1CC[C@@H](n2c(Nc3c(Cl)cc(F)cc3Cl)nc3cnc(NC4CCCOCC4)nc32)CC1 (some centres unmarked) [Example 541, (1s,4s)-4-(8-(2,6-dichloro-4-fluorophenylamino)-2-(oxepan-4-ylamino)-9H-purin-9-yl)cyclohexanecarboxamide], NC(=O)[C@H]1CC[C@@H](n2c(Nc3c(Cl)cc(C(F)(F)F)cc3Cl)nc3cnc(NC4CCCOCC4)nc32)CC1 (some centres unmarked) [Example 544, (1s,4s)-4-(8-(2,6-dichloro-4-(trifluoromethyl)phenylamino)-2-(oxepan-4-ylamino)-9H-purin-9-yl)cyclohexanecarboxamide] is higher in IC50: 500 to 1000 nM for the first, greater than 1000 nM for the second. The first is the more potent here.

N#Cc1cc(F)c(Nc2nc3cnc(NC4CCCOCC4)nc3n2[C@H]2CC[C@@H](C(N)=O)CC2)c(Cl)c1 (some centres unmarked) [Example 543, (1s,4s)-4-(8-(2-chloro-4-cyano-6-fluorophenylamino)-2-(oxepan-4-ylamino)-9H-purin-9-yl)cyclohexanecarboxamide] and NC(=O)[C@H]1CC[C@@H](n2c(Nc3c(F)cc(F)cc3F)nc3cnc(N[C@@H]4CCC(F)(F)C4)nc32)CC1 [Example 545, (1S,4s)-4-(2-((R)-3,3-difluorocyclopentylamino)-8-(2,4,6-trifluorophenylamino)-9H-purin-9-yl)cyclohexanecarboxamide] cannot be ordered by IC50: less than 250 nM for the first, less than 250 nM for the second.

First: C[C@@H](CO)Nc1ncc2nc(Nc3c(F)cc(F)cc3F)n([C@H]3CC[C@@](C)(C(N)=O)CC3)c2n1 [Example 546, (1R,4s)-4-(2-((S)-1-hydroxypropan-2-ylamino)-8-(2,4,6-trifluorophenylamino)-9H-purin-9-yl)-1-methylcyclohexanecarboxamide]
Second: C[C@@H](CO)Nc1ncc2nc(Nc3c(F)cc(F)cc3Cl)n([C@H]3CC[C@@](C)(C(N)=O)CC3)c2n1 [Example 548, (1R,4s)-4-(8-(2-chloro-4,6-difluorophenylamino)-2-((S)-1-hydroxypropan-2-ylamino)-9H-purin-9-yl)-1-methylcyclohexanecarboxamide]
The IC50 of the first is higher: 250 to 500 nM for the first, less than 250 nM for the second. The second is the more potent here.

C[C@@H](CO)Nc1ncc2nc(Nc3c(F)cc(Cl)cc3Cl)n([C@H]3CC[C@@](C)(C(N)=O)CC3)c2n1 [Example 547, (1R,4s)-4-(8-(2,4-dichloro-6-fluorophenylamino)-2-((S)-1-hydroxypropan-2-ylamino)-9H-purin-9-yl)-1-methylcyclohexanecarboxamide] and C[C@@H](CO)Nc1ncc2nc(Nc3c(Cl)cc(Cl)cc3Cl)n([C@H]3CC[C@@](C)(C(N)=O)CC3)c2n1 [Example 549, (1R,4s)-4-(2-((S)-1-hydroxypropan-2-ylamino)-8-(2,4,6-trichlorophenylamino)-9H-purin-9-yl)-1-methylcyclohexanecarboxamide] cannot be ordered by IC50: less than 250 nM for the first, less than 250 nM for the second.

C[C@@H](CO)Nc1ncc2nc(Nc3c(F)cc(Cl)cc3F)n([C@H]3CC[C@@](C)(C(N)=O)CC3)c2n1 [Example 550, (1R,4s)-4-(8-(4-chloro-2,6-difluorophenylamino)-2-((S)-1-hydroxypropan-2-ylamino)-9H-purin-9-yl)-1-methylcyclohexanecarboxamide] and C[C@@H](CO)Nc1ncc2nc(Nc3c(F)cc(C#N)cc3Cl)n([C@H]3CC[C@@](C)(C(N)=O)CC3)c2n1 [Example 552, (1R,4s)-4-(8-(2-chloro-4-cyano-6-fluorophenylamino)-2-((S)-1-hydroxypropan-2-ylamino)-9H-purin-9-yl)-1-methylcyclohexanecarboxamide] cannot be ordered by IC50: less than 250 nM for the first, less than 250 nM for the second.

C[C@@H](CO)Nc1ncc2nc(Nc3c(Cl)cc(F)cc3Cl)n([C@H]3CC[C@@](C)(C(N)=O)CC3)c2n1 [Example 551, (1R,4s)-4-(8-(2,6-dichloro-4-fluorophenylamino)-2-((S)-1-hydroxypropan-2-ylamino)-9H-purin-9-yl)-1-methylcyclohexanecarboxamide] and C[C@@H](CO)Nc1ncc2nc(Nc3c(Cl)cc(C#N)cc3Cl)n([C@H]3CC[C@@](C)(C(N)=O)CC3)c2n1 [Example 553, (1R,4s)-4-(8-(2,6-dichloro-4-cyanophenylamino)-2-((S)-1-hydroxypropan-2-ylamino)-9H-purin-9-yl)-1-methylcyclohexanecarboxamide] cannot be ordered by IC50: less than 250 nM for the first, less than 250 nM for the second.

Same assay, conditions: Lox-IMVI anti-proliferative assay, IC50 activity level; read-out: Activity

In the case of N#Cc1cc(F)c(Nc2nc3cnc(N[C@H]4CCCOCC4)nc3n2C2CCC(C(N)=O)CC2)c(F)c1 (some centres unmarked) [Example 542, (1s,4s)-4-(8-(4-cyano-2,6-difluorophenylamino)-2-(oxepan-4-ylamino)-9H-purin-9-yl)cyclohexanecarboxamide], the IC50 is reported as greater than 1000 nM.
